Reference: patent US10745394B2, “8-azabicyclo[3.2.1]octane compounds as mu opioid receptor antagonists” (priority 2006, dated 2020)
Like-named read-outs stand apart in the source and are kept apart here.

Tests used:
human mu opioid receptor [1] = biological target: T1, human mu opioid receptor (Homo sapiens, UniProt P35372); experiment: Radioligand binding assay, human mu opioid receptor; details: displacement of [3H]-Diprenorphine
T1 construct: expressed in transfected cells; host or cells: CHO-K1

human mu opioid receptor [2] = biological target: T1, human mu opioid receptor; experiment: Human mu GTP-Eu nucleotide exchange assay (agonist mediated activation) in CHO-K1 membranes; type: biochemical; details: bound GTP-Eu relative to DAMGO (IA=100); read-out: intrinsic activity (IA)
Protocol: a. Mu Opioid Receptor Membrane Preparation:
Protein concentration was determined using a Bio-Rad Bradford Protein Assay kit. Membranes were stored in frozen aliquots at −80° C., until required. Lyophilized GTP-Eu and GDP were diluted to 10 μM and 2 mM, respectively, in double distilled H2O then mixed and permitted to sit at room temperature for 30 minutes prior to transfer to individual aliquots samples for storage at −20° C.
b. Human Mu GTP-Eu Nucleotide Exchange Assay
GTP-Eu nucleotide exchange assays were performed using the DELPHIA GTP-binding kit (Perkin/Elmer) in AcroWell 96 well filter plates according to the manufacturer's specifications. […] Test compounds were received as 10 mM stock solutions in DMSO, diluted to 400 μM into Assay Buffer containing 0.1% BSA, and serial (1:5) dilutions then made to generate ten concentrations of compound ranging from 40 pM^− 80 μM-GDP and GTP-Eu were diluted to 4 μM and 40 nM, respectively, in Assay Buffer. The assay was performed in a total volume of 100 μL containing 5 μg of membrane protein, test compound ranging from 10 pM-20 μM), 1 μM GDP, and 10 nM GTP-Eu diluted in 10 mM MgCl2, 50 mM NaCl, and 0.0125% BSA, (final assay concentrations). A DAMGO (Tyr-D-Ala-Gly-(methyl)Phe-Gly-ol) concentration-response curve (ranging from 12.8 pM-1 μM) was included on every plate.
Assay plates were prepared immediately prior to assay following the addition of 25 μL of Assay Buffer, 25 μL of test compound, and 25 μL GDP and GTP-Eu. The assay was initiated by the addition of 25 μL membrane protein and allowed to incubate for 30 minutes. The assay plates were then filtered with a Waters vacuum manifold connected to the house vacuum regulated to 10-2 in. Hg and washed with room temperature GTP Wash Solution ([…]). The bottoms of the plates were blotted to remove excess liquid. The plates were then immediately read to determine the amount of bound GTP-Eu by measuring Time Resolved Fluorescence (TRF) on a Packard Fusion Plate ReaderVehicle: DMSO not to exceed 1% final assay concentration.
The amount of bound GTP-Eu is proportional to the degree of activation of the mu opioid receptors by the test compound.

[3] = system: morphine-induced analgesia / morphine-induced delayed gastrointestinal transit
[4] = following subcutaneous administration

T1 sequence (P35372 whole entry): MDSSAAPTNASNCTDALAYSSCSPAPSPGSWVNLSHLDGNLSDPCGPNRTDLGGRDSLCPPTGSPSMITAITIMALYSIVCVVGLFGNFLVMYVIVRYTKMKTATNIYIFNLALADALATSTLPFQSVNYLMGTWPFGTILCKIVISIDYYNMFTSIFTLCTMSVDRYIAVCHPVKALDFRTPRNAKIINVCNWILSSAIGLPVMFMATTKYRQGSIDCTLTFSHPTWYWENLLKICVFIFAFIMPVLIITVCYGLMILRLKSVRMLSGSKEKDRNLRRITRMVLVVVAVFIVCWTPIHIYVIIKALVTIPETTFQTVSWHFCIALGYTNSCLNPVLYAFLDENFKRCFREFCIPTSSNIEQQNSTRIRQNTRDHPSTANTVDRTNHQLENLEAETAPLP

Compound | pKi (human mu opioid receptor [1]) | Emax (human mu opioid receptor [2]) | peripheral selectivity (hotplate ID50 / intestinal transit ID50) ([3]; following oral administration) | peripheral selectivity (hotplate ID50 / intestinal transit ID50) [3, 4]
NC(=O)c1cccc([C@H]2C[C@H]3CC[C@@H](C2)N3CCN(CC2CCCCC2)C(=O)[C@@H](O)CO)c1 [Example 58, 3-endo-(8-{2-[cyclohexylmethyl-((S)-2,3-dihydroxy-propionyl)amino]ethyl}-8-aza-bicyclo[3.2.1]oct-3-yl)benzamide] | 9.9 | -3% | 35 | 300
CS(=O)(=O)CC(=O)N(CCc1ccccc1)CCN1[C@@H]2CC[C@H]1C[C@@H](c1cccc(C(N)=O)c1)C2 [Example 136, 3-endo-(8-{2-[(2-methanesulfonylacetyl)phenethylamino]ethyl}-8-azabicyclo[3.2.1]oct-3-yl)-benzamide] | 9.8 | 14% |  | 
NC(=O)c1cccc([C@H]2C[C@H]3CC[C@@H](C2)N3CCN(CC2CCC(F)(F)CC2)C(=O)CO)c1 [Example 63, 3-endo-(8-{2-[(4,4-difluorocyclohexylmethyl)-(2-hydroxyacetyl)amino]ethyl}-8-azabicyclo[3.2.1]oct-3-yl)benzamide] |  |  | 22 | 22
O=C(CO)N(CCN1[C@@H]2CC[C@H]1C[C@@H](c1cccc(O)c1)C2)Cc1ccccc1 [Example 1, N-benzyl-2-hydroxy-N-{2-[3-endo-(3-hydroxyphenyl)-8-azabicyclo[3.2.1]oct-8-yl]ethyl}acetamide] | 10.1 | 6% |  | 
NC(=O)c1cccc([C@H]2C[C@H]3CC[C@@H](C2)N3CCN(CCc2ccccc2)C(=O)CO)c1 [Example 59, 3-endo-(8-{2-[(2-hydroxyacetyl)phenethylamino]-ethyl}-8-azabicyclo[3.2.1]oct-3-yl)benzamide] |  | -2% |  | 
NC(=O)c1cccc([C@H]2C[C@H]3CC[C@@H](C2)N3CCN(CC2CCCCC2)C(=O)CO)c1 [Example 48B, 3-endo-(8-{2-[cyclohexylmethyl-(2-hydroxyacetyl)-amino]-ethyl}-8-azabicyclo[3.2.1]oct-3-yl)benzamide] |  |  | 42 | 30
NC(=O)c1cccc([C@H]2C[C@H]3CC[C@@H](C2)N3CCN(Cc2ccccc2)C(=O)CO)c1 [Example 46B, 3-endo-(8-{2-[benzyl-(2-hydroxyacetyl)-amino]ethyl}-8-azabicyclo[3.2.1]oct-3-yl)benzamide] | 10.0 | -3% |  | 
